In US20260198497A1, “A BENZENE RING-SUBSTITUTED PYRIMIDINECARBOXYLIC ACID COMPOUND, PREPARATION METHOD THEREFOR, HERBICIDAL COMPOSITION AND APPLICATION THEREOF” (QINGDAO KINGAGROOT CHEMICAL COMPOUND CO., LTD., priority 2023, published 2026):

Columns and labels:
Euphorbia helioscopia = assay: Activity assay of compositions, post-emergence spray of stems and leaves; assay type: in vivo; conditions: 21 days
Description: The required active ingredient B was purchased from a reagent company or a technical material manufacturer or synthesized by a conventional method. The active ingredient A was Compound 74 in Table 1. The technical materials were all dissolved with acetone solvents and diluted with aqueous solution of 0.1% Tween® 80 emulsifier, which should be used immediately after dilution.
(§1) Weeds were cultivated by a pot culture method. […] Weed seeds with plump and uniform grains were selected, soaked in lukewarm water at 25° C. for 6 hours, and accelerated to germinate in a 28° C. biochemical incubator (in darkness). The weed seeds that had just germinated were evenly placed on the surface of the soil and then covered with 0.5-1 cm soil according to the sizes of seeds.
The weeds were cultured in a controllable sunlight greenhouse at 20-30° C., in natural light, and with relative humidity of 57%-72%. The soil was loam with an organic matter content of 1.63%, a pH value of 7.1, alkali-hydrolyzable nitrogen of 84.3 mg/kg, rapidly available phosphorus of 38.5 mg/kg, and rapidly available potassium of 82.1 mg/kg.
(§2) Each treatment was repeated 4 times for 3 pots. Each pot was seeded with 20 weed seeds.
(§3) The drugs were applied once in total in the experiment. When at the stage of 1.5-2 leaves, the weeds were thinned out to maintain 10 strains per pot. Thirty strains were kept in each treatment and then continued to be cultured until the Erigeron canadensis reached 10 cm tall and other weeds in their 3-4 leaf stage for further treatment.
(§4) The well-cultured test materials were evenly placed on a 0.5 m^2 platform and foliage-sprayed by the 3WP-2000-type walking spray tower at a dosage of […] and a spray pressure of 0.3 MPa. After all the drug solution was sprayed, the air valve was closed. And 30 seconds later, the door of the spray tower was opened, and the nutritional bowl was taken out. Next, the air valve was opened, and the spray tube was cleaned by spraying 50 ml of water. The test materials were transferred to and routinely cultured in a greenhouse after the treatment.
(§5) A method for investigating absolute numbers was employed. The whole seedlings of the survival weeds were cut along the soil surface with a blade, and the fresh weight of the weeds was weighed by an analytical balance. For dead weeds, the fresh weight thereof was considered zero.
(§6) The investigation was performed 21 days after the treatment for once in total.
The theoretical fresh weight inhibition rate of a mixed combination of each treatment was calculated by the Gowing method (E0=X+Y−X*Y/100). Then compared with the measured inhibition rate (E), the type of the combined action of the combination of the two on weeds was evaluated, which was a synergistic effect when E−E0>10; an antagonistic effect when E−E0<−10%; an additional effect when −10≤E−E0≤[…]. An optimal ratio was determined according to factors such as the actual control effects, characteristics of herbicides, balance of the formulation, etc. In the formula, X represents the fresh weight inhibition rate of the active ingredient A in a dosage of P; Y represents the fresh weight inhibition rate of the active ingredient B in a dosage of Q. The statistical results are shown in Table 5 below.

Veronica [1] = assay: as above; assay type: in vivo; conditions: 21 days
Protocol: The required active ingredient B was purchased from a reagent company or a technical material manufacturer or synthesized by a conventional method. […] The technical materials were all dissolved with acetone solvents and diluted with aqueous solution of 0.1% Tween® 80 emulsifier, which should be used immediately after dilution.
as §1, §2, §3, §4, §5, §6
The theoretical fresh weight inhibition rate of a mixed combination of each treatment was calculated by the Gowing method (E0=X+Y−X*Y/100). […] An optimal ratio was determined according to factors such as the actual control effects, characteristics of herbicides, balance of the formulation, etc. In the formula, X represents the fresh weight inhibition rate of the active ingredient A in a dosage of P; Y represents the fresh weight inhibition rate of the active ingredient B in a dosage of Q. The statistical results are shown in Table 5 below.

Veronica [2] = assay: Post-emergence test on weeds; assay type: in vivo; set-up: key: 0 = no effect, 9 = completely dead (levels by growth control rate); conditions: 30 g a.i./ha, 3 weeks after application
Description: (§7) The criteria for activity levels of plant damage (i.e., growth control rate) are as follows: • Level 9: completely dead; • Level 8: growth control rate is greater than or equal to 90% and less than 100%; • Level 7: growth control rate is greater than or equal to 80% and less than 90%; • Level 6: growth control rate is greater than or equal to 70% and less than 80%; • Level 5: growth control rate is greater than or equal to 50% and less than 70%; • Level 4: growth control rate is greater than or equal to 30% and less than 50%; • Level 3: growth control rate is greater than or equal to 20% and less than 30%; • Level 2: growth control rate is greater than or equal to 10% and less than 20%; • Level 1: growth control rate is less than 10%; • Level 0: no effect.
(§8) The above growth control rates are fresh weight control rates.
(§9) Monocotyledonous and dicotyledonous weed seeds (Descurainia sophia, Capsella bursa-pastoris, Abutilon theophrasti, Galium spurium, Stellaria media, Lithospermum arvense, Rorippa indica, Alopecurus aequalis, Alopecurus japonicus, Eleusine indica, Beckmannia syzigachne, Sclerochloa dura, Erigeron canadensis, Phleum paniculatum, Veronica, Bromus japonicus, Aegilops tauschii, Phalaris arundinacea, Amaranthus retroflexus, Chenopodium, Commelina communis, Cichorium endivia, Convolvulus arvensis, Cirsium arvense, Solanum nigrum, Acalypha australis, Digitaria sanguinalis, Echinochloa crusgalli, Setaria viridis, Setaria pumila, Leptochloa chinensis, Monochoria vaginalis, Sagittaria trifolia, Schoenoplectiella juncoides, Cyperus rotundus, Cyperus iria, Cyperus difformis, Fimbristylis, Portulaca oleracea, Xanthium sibiricum, Ipomoea nil, Eschenbachia japonica, etc.) and major crop seeds (wheat, maize, paddy rice, soybean, cotton, oilseed rape, millet, sorghum, potato, sesame, castor plant, Chinese cabbage, radish, etc.) were placed in plastic pots filled with soil and then covered with 0.5-2 cm of soil to allow them to grow in a favorable greenhouse environment. Two weeks after sowing, the test plants were treated at the stage of 2-3 leaves. The test compounds of the present invention were individually dissolved with acetone, then added with Tween® 80, with 1.5 L/ha of methyl oleate emulsifiable concentrate as a synergist, diluted into solution of a certain concentration using a certain amount of water, and sprayed to plants using a spray tower. After drug application, the experimental results on weeds were collected after 3 weeks of cultivation in a greenhouse. The compounds were applied at 120, 60, 30, and 15 g a.i./ha in triplicate, and the results were averaged.

Wheat = assay: Post-emergence test, crop safety; conditions: in vivo, 3 weeks
Description: as §7, §8, §9

Paddy rice = assay: Post-emergence test, crop safety; conditions: in vivo, 3 weeks
Description: as §7, §8, §9

Bidens tripartita = assay: Control effect evaluation on weeds in paddy fields; assay type: in vivo; conditions: 30 g a.i./ha, paddy pot, 14th day after treatment, seeds resistant to pyrazosulfuron-ethyl
Description: as §7, §8
(§10) After paddy field soil was loaded into a 1/1,000,000 ha pot, the seeds of Monochoria vaginalis, Pontederia korsakowii and Bidens tripartita were sowed and gently covered with soil, then left to stand in a greenhouse with water storage of 0.5-1 cm deep. The tuber of Sagittaria trifolia was planted on the next day or 2 days later. The water storage was kept at a depth of 3-4 cm thereafter. When the Monochoria vaginalis, Pontederia korsakowii and Bidens tripartita reached their 0.5-leaf stages and the Sagittaria trifolia reached the primary leaf stage, WP or SC aqueous dilutions of the compounds of the present invention formulated according to customary formulation methods were homogeneously dripped for treatment to the specified effective amount using pipettes.
(§11) The effects were evaluated according to the above-mentioned criteria for activity levels.

Pontederia korsakowii = assay: Control effect evaluation on weeds in paddy fields; assay type: in vivo; conditions: 30 g a.i./ha, paddy pot, 14th day after treatment, seeds resistant to pyrazosulfuron-ethyl
Description: as §7, §8, §10, §11

Monochoria vaginalis = assay: Control effect evaluation on weeds in paddy fields; assay type: in vivo; conditions: 30 g a.i./ha, paddy pot, 14th day after treatment, seeds resistant to pyrazosulfuron-ethyl
Description: as §7, §8, §10, §11

CC1(C)CON(Cc2ccc(Cl)cc2Br)C1=O
Control effect of B applied alone in a corresponding dose (%) (Euphorbia helioscopia; B 60 g a.i./ha): 25.7%
Control effect of B applied alone in a corresponding dose (%) (Euphorbia helioscopia; B 120 g a.i./ha): 44.6%

CCOC(=O)Cn1c(=O)sc2cccc(Cl)c21 [Benazolinethyl, benazolin-ethyl]
Control effect of B applied alone in a corresponding dose (%) (Veronica [1]; B 75 g a.i./ha): 24.0%
Control effect of B applied alone in a corresponding dose (%) (Veronica [1]; B 150 g a.i./ha): 35.2%

CCCCCCC(C)OC(=O)COc1nc(F)c(Cl)c(N)c1Cl (stereo not drawn) [Fluroxypyrmeptyl, fluroxypyr-meptyl]
Control effect of B applied alone in a corresponding dose (%) (Veronica [1]; B 60 g a.i./ha): 20.3%
Control effect of B applied alone in a corresponding dose (%) (Veronica [1]; B 120 g a.i./ha): 40.6%

CCC[S@@+]([O-])c1c(C(F)(F)F)ccc(C(=O)Nc2nnc(C)o2)c1F
Control effect of B applied alone in a corresponding dose (%) (Euphorbia helioscopia; B 15 g a.i./ha): 34.3%
Control effect of B applied alone in a corresponding dose (%) (Euphorbia helioscopia; B 30 g a.i./ha): 55.4%

COC(=O)c1nc(-c2ccc(Cl)c(OC)c2F)cc(N)c1Cl [Halauxifenmethyl, halauxifen-methyl]
Control effect of B applied alone in a corresponding dose (%) (Veronica [1]; B 1.5 g a.i./ha): 22.8%
Control effect of B applied alone in a corresponding dose (%) (Veronica [1]; B 3 g a.i./ha): 43.1%

Cc1nn(C)cc1C(=O)Oc1c(C(=O)c2ccc(C(F)(F)F)cc2S(C)(=O)=O)c(C)nn1C [Bipyrazone, bipyrazone]
Control effect of B applied alone in a corresponding dose (%) (Euphorbia helioscopia; B 7.5 g a.i./ha): 37.1%
Control effect of B applied alone in a corresponding dose (%) (Euphorbia helioscopia; B 15 g a.i./ha): 55.8%

Nc1cc(Cl)nc(C(=O)O)c1Cl [Aminopyralid, aminopyralid]
Control effect of B applied alone in a corresponding dose (%) (Veronica [1]; B 30 g a.i./ha): 18.0%
Control effect of B applied alone in a corresponding dose (%) (Veronica [1]; B 60 g a.i./ha): 39.7%

Cn1[nH]c(C2CC2)c(C(=O)c2ccc(C(F)(F)F)c(N3CCCCC3=O)c2Cl)c1=O [Cypyrafluone, cypyrafluone]
Control effect of B applied alone in a corresponding dose (%) (Euphorbia helioscopia; B 15 g a.i./ha): 34.7%
Control effect of B applied alone in a corresponding dose (%) (Euphorbia helioscopia; B 30 g a.i./ha): 55.2%

COc1c(N)nc(-c2ccc(Br)c(OC)c2F)nc1C(=O)SC [Compound 221]
activity level of plant damage (growth control rate), Veronica (Veronica [2]): 9
activity level of plant damage (growth control rate), Wheat (Wheat): 0
activity level of plant damage (growth control rate), Paddy rice (Paddy rice): 0

COc1ncc(F)c2nc(S(=O)(=O)Nc3c(F)cccc3F)nn12 [Florasulam, florasulam]
Control effect of B applied alone in a corresponding dose (%) (Veronica [1]; B 3 g a.i./ha): 15.7%
Control effect of B applied alone in a corresponding dose (%) (Veronica [1]; B 6 g a.i./ha): 28.1%

Cc1cc(Cl)ccc1OCC(=O)OCCCCCC(C)C [MCPA-isooctyl]
Control effect of B applied alone in a corresponding dose (%) (Veronica [1]; B 150 g a.i./ha): 23.5%
Control effect of B applied alone in a corresponding dose (%) (Veronica [1]; B 300 g a.i./ha): 40.8%

CCOC(=O)c1cnn(C)c1S(=O)(=O)NC(=O)Nc1nc(OC)cc(OC)n1 [pyrazosulfuron-ethyl, reference compound]
activity level, Bidens tripartita (Bidens tripartita): 4 (Level 4: growth control rate is greater than or equal to 30% and less than 50%)
activity level, Pontederia korsakowii (Pontederia korsakowii): 2 (Level 2: growth control rate is greater than or equal to 10% and less than 20%)
activity level, Monochoria vaginalis (Monochoria vaginalis): 1 (Level 1: growth control rate is less than 10%)

Cc1cc(C)n(Cc2c(S(C)(=O)=O)ccc(C(=O)c3c(C)nn(C)c3OC(=O)c3cn(C)nc3C)c2Cl)n1 [Tripyrasulfone, tripyrasulfone]
Control effect of B applied alone in a corresponding dose (%) (Euphorbia helioscopia; B 15 g a.i./ha): 20.0%
Control effect of B applied alone in a corresponding dose (%) (Euphorbia helioscopia; B 30 g a.i./ha): 36.9%

O=C(O)c1nc(Cl)ccc1Cl [Clopyralid, clopyralid]
Control effect of B applied alone in a corresponding dose (%) (Veronica [1]; B 45 g a.i./ha): 12.4%
Control effect of B applied alone in a corresponding dose (%) (Veronica [1]; B 90 g a.i./ha): 33.3%

CCn1ncc(C(=O)c2ccc(S(C)(=O)=O)c(COCC(F)(F)F)c2Cl)c1OC(=O)c1cn(C)nc1C [Fenpyrazone, fenpyrazone]
Control effect of B applied alone in a corresponding dose (%) (Euphorbia helioscopia; B 15 g a.i./ha): 34.3%
Control effect of B applied alone in a corresponding dose (%) (Euphorbia helioscopia; B 30 g a.i./ha): 60.0%

COc1c(Cl)ccc(-c2nc(C(=O)OCc3ccccc3)c(Cl)c(N)c2F)c1F [Florpyrauxifenbenzyl, florpyrauxifen-benzyl]
Control effect of B applied alone in a corresponding dose (%) (Veronica [1]; B 3 g a.i./ha): 20.1%
Control effect of B applied alone in a corresponding dose (%) (Veronica [1]; B 6 g a.i./ha): 45.8%

Nc1c(Cl)c(Cl)nc(C(=O)O)c1Cl [Picloram, picloram]
Control effect of B applied alone in a corresponding dose (%) (Veronica [1]; B 15 g a.i./ha): 15.7%
Control effect of B applied alone in a corresponding dose (%) (Veronica [1]; B 30 g a.i./ha): 30.8%
